According to patent publication US8450372B2, “Formulations of suberoylanilide hydroxamic acid and methods for producing same” (Merck Sharp & Dohme Corp., priority 2005, dated 2013):
Like-named read-outs stand apart in the source and are kept apart here. Marks after values point to notes of the source that are not given here. One block for each molecule: values may come before it.

Tests used:
[1] = Solubility of SAHA raw material (physical and chemical properties of raw materials); assay type: physicochemical; conditions: water
Text: Table 10 summarizes the physical properties of the raw materials in the capsule.

[2] = Phase I study: safety and tolerability of oral vorinostat 400 mg q.d.; assay type: in vivo, human; conditions: short-term administration, patients with advanced cancer
Experimental: (§1) This Phase I study conducted in advanced stage cancer patients assessed safety and tolerability of oral vorinostat administered 400 mg q.d., single- and multiple-dose serum pharmacokinetics (PK) of vorinostat, and the effect of a standard high-fat meal on single-dose vorinostat PK. Patients received a single-dose of 400 mg vorinostat on Day 1 (fasted) and Day 5 (after a standard high-fat meal) with 48 hours of postdose PK sampling on both days. Patients then received 400 mg vorinostat once a day on Days 7 through 28 (22 days of dosing). On Day 28, vorinostat was administered after a standard high-fat meal with PK sampling for 24 hrs postdose. Of 23 patients enrolled, 23 were evaluable for Day 1 PK, 20 for Day 5 PK, and 14 for Day 28 PK. The apparent t1/2 of vorinostat was short.

[3] = Phase I study: single- and multiple-dose serum pharmacokinetics of oral vorinostat 400 mg, fasted and after high-fat meal; assay type: in vivo, human; conditions: for fe (fraction of dose excreted unchanged in urine): arithmetic mean; for Tmax: median; for AUC(0-t): read-out: AUC0-24 hr
Experimental: as §1
Table 22: PK Parameters of Vorinostat Following Single and Multiple Doses of Vorinostat 400 mg Daily

[4] = Dissolution rate of about 100 mg SAHA API before encapsulation (USP Dissolution Apparatus II, 900 mL 2.0% Tween, 37±0.5° C., 100 rpm, HPLC); assay type: physicochemical; conditions: for Average SAHA % Dissolved at Time, minutes 0: 0 minutes; for Average SAHA % Dissolved at Time, minutes 10: 10 minutes; for Average SAHA % Dissolved at Time, minutes 15: 15 minutes; for Average SAHA % Dissolved at Time, minutes 20: 20 minutes; for Average SAHA % Dissolved at Time, minutes 30: 30 minutes; for Average SAHA % Dissolved at Time, minutes 45: 45 minutes; for Average SAHA % Dissolved at Time, minutes 60: 60 minutes
Experimental: Dissolution rates or profiles in vitro of “about 100 mg of the active ingredient of the pharmaceutical composition” is measured according to the steps and conditions in Example 15. In one embodiment, it is measured by using a USP Dissolution Apparatus II with a helical sinker (Quality Lab Accessories L.L.C., Manville, N.J.) in 900 mL of 2.0% Tween (TCI America, Portland, Oreg.) at a temperature of 37±0.5° C., and paddles rotated at 100 rpm.
The dissolution rate of 100 mg of SAHA API before encapsulation was evaluated using a USP Dissolution Apparatus II (VK 7000, Varian Inc., Cary, N.C.). About 100 mg of SAHA was delivered to vessels containing 900 mL of 2.0% Tween (TCI America, Portland, Oreg.) at a temperature of 37±0.5° C. The paddles were rotated at 100 rpm and samples were pulled at specified time intervals via an autosampler (VK 8000, Varian Inc., Cary, N.C.) equipped with 35 μm full flow filters (Varian Inc., Cary, N.C.).
Subsequently, samples were assayed for SAHA by High Performance Liquid Chromatography (Agilent 1100 series, Agilent Technologies Inc., Wilmington, Del.). The chromatographic analysis was conducted using a Phenomenex Luna C8 (2) (100×4.6 mm) 5 μm particle size column, a mobile phase of 1:1 methanol/0.1% trifluroacetic acid (Reagent Grade, Fisher), and a detection wavelength of 242 nm.

[5] = 400 mg single oral dose, high-fat meal vs fasted
[6] = single dose fed/single dose fasted, 400 mg

Compound: O=C(CCCCCCC(=O)Nc1ccccc1)NO [vorinostat, N-hydroxy-N′-phenyloctanediamide]
solubility [1]: < 100 µg/mL | tolerability [2]: generally well tolerated | Accumulation ratio: AUC0-24 hr multiple dose fed/AUC0-24 hr single dose fed (GMR) ([3]; 400 mg daily): 1.21 | Linearity ratio: AUC0-24 hr multiple dose fed/AUC0-∞ single dose fed (GMR) ([3]; 400 mg daily): 1.23 | fe (fraction of dose excreted unchanged in urine) ([3]; 400 mg oral, multiple doses (once daily for 22 days), fed, n = 12): 0.0037 | t1/2 ([3]; 400 mg oral, multiple doses (once daily for 22 days), fed, harmonic mean): 1.34 h | Cmax ([3]; 400 mg oral, multiple doses (once daily for 22 days), fed, serum, geometric mean): 1130 nM | fe (fraction of dose excreted unchanged in urine) ([3]; 400 mg oral, single dose, fasted, n = 22): 0.0021 | Tmax ([3]; 400 mg oral, single dose, fasted): 1.50 h | AUC0-∞ ([3]; 400 mg oral, single dose, fed (high-fat meal), serum, geometric mean): 5.33 µM·h | fe (fraction of dose excreted unchanged in urine) ([3]; 400 mg oral, single dose, fed, n = 21): 0.0030 | AUC0-24 hr ([3]; 400 mg oral, single dose, fed, serum, geometric mean): 5.33 µM·h | extent of absorption, effect of high-fat meal [3, 5]: small increase | rate of absorption, effect of high-fat meal [3, 5]: modest decrease | apparent t1/2 ([3]; advanced cancer patients, 400 mg oral, serum): short | Tmax, effect of high-fat meal ([3]; fed state, 400 mg oral): delayed | lag time before detectable levels in serum ([3]; fed state, most subjects, 400 mg oral): at least 15 minutes | Tmax ([3]; human, serum, po, 400 mg, 400 mg oral, multiple doses (once daily for 22 days), fed, read-out: Tmax): 4.21 h | AUC(0-t) ([3]; human, serum, po, 400 mg, 400 mg oral, multiple doses (once daily for 22 days), fed, serum, geometric mean): 6.46 µM·h | Cmax ([3]; human, serum, po, 400 mg, 400 mg oral, single dose, fasted, geometric mean): 1120 nM | half-life ([3]; human, serum, po, 400 mg, 400 mg oral, single dose, fasted, harmonic mean): 104 min | AUC(0-t) ([3]; human, serum, po, 400 mg, 400 mg oral, single dose, fasted, serum, geometric mean): 3.82 µM·h | Cmax ([3]; human, serum, po, 400 mg, 400 mg oral, single dose, fed, geometric mean): 1020 nM | half-life ([3]; human, serum, po, 400 mg, 400 mg oral, single dose, fed, harmonic mean): 86.4 min | Tmax ([3]; human, serum, po, 400 mg, 400 mg oral, single dose, fed, read-out: Tmax): 4 h | AUC(0-inf) ([3]; human, 400 mg oral, single dose, fasted, serum, geometric mean): 3.87 µM·h | Trough concentrations ([3]; multiple-dose administration, 400 mg once a day, serum): generally below the limit of quantification | AUC0-∞ GMR (geometric mean ratio) [3, 6]: 1.38^§ | Cmax GMR (geometric mean ratio) [3, 6]: 0.91^§

Compound: O=C(CCCCCCC(=O)Nc1ccccc1)NO [1007D, suberoylanilide hydroxamic acid]
Average SAHA % Dissolved at Time, minutes 0 [4]: 0.0% | Average SAHA % Dissolved at Time, minutes 10 [4]: 37.8% | Average SAHA % Dissolved at Time, minutes 15 [4]: 46.1% | Average SAHA % Dissolved at Time, minutes 20 [4]: 52.1% | Average SAHA % Dissolved at Time, minutes 30 [4]: 61.9% | Average SAHA % Dissolved at Time, minutes 45 [4]: 71.8% | Average SAHA % Dissolved at Time, minutes 60 [4]: 79.3%

Now from value to molecule:

Average SAHA % Dissolved at Time, minutes 0 [4]: 0.0% | Average SAHA % Dissolved at Time, minutes 10 [4]: 38.2% | Average SAHA % Dissolved at Time, minutes 15 [4]: 48.9% | Average SAHA % Dissolved at Time, minutes 20 [4]: 57.3% | Average SAHA % Dissolved at Time, minutes 30 [4]: 69.3% | Average SAHA % Dissolved at Time, minutes 45 [4]: 80.6% | Average SAHA % Dissolved at Time, minutes 60 [4]: 87.7%
Compound: O=C(CCCCCCC(=O)Nc1ccccc1)NO [1136-1136-00-001, suberoylanilide hydroxamic acid]

Average SAHA % Dissolved at Time, minutes 0 [4]: 0.0% | Average SAHA % Dissolved at Time, minutes 10 [4]: 26.8% | Average SAHA % Dissolved at Time, minutes 15 [4]: 34.8% | Average SAHA % Dissolved at Time, minutes 20 [4]: 41.5% | Average SAHA % Dissolved at Time, minutes 30 [4]: 51.3% | Average SAHA % Dissolved at Time, minutes 45 [4]: 61.8% | Average SAHA % Dissolved at Time, minutes 60 [4]: 69.8%
Compound: O=C(CCCCCCC(=O)Nc1ccccc1)NO [1008D, suberoylanilide hydroxamic acid]

Average SAHA % Dissolved at Time, minutes 0 [4]: 0.0% | Average SAHA % Dissolved at Time, minutes 10 [4]: 31.1% | Average SAHA % Dissolved at Time, minutes 15 [4]: 39.7% | Average SAHA % Dissolved at Time, minutes 20 [4]: 47.1% | Average SAHA % Dissolved at Time, minutes 30 [4]: 58.3% | Average SAHA % Dissolved at Time, minutes 45 [4]: 70.1% | Average SAHA % Dissolved at Time, minutes 60 [4]: 78.3%
Compound: O=C(CCCCCCC(=O)Nc1ccccc1)NO [1376-C-RO-02, suberoylanilide hydroxamic acid]
